In paper PMC8132114 (ACS combinatorial science, 2019):
*1 amine or outer side, *2 acyl side, *3 side chain or, on linkers, in order; H or OH if unused. Where a SMILES comes first, the peptide text is derived from it. [ ]: non-standard residue; d: D form. The star is where a group is joined. X1 = O=C([C@H](CCON=Cc1c(Cl)cncc1Cl)N[*:1])[*:2]; Biotin = O=C1N[C@H]2[C@H](CS[C@H]2CCCCC(=O)*)N1; pY = N[C@@H](Cc1ccc(OP(=O)(O)O)cc1)C(=O)O; Ahx = NCCCCCC(=O)O

Molecular target: VH1 C110S
Format: binding, Variola major
Details: pH 6.2

CC(C)[C@H](NC(=O)CCCCCNC(=O)CCCC[C@@H]1SC[C@@H]2NC(=O)N[C@@H]21)C(=O)N[C@@H](CC(=O)O)C(=O)N[C@@H](C)C(=O)N[C@@H](CC(=O)O)C(=O)N[C@@H](CCC(=O)O)C(=O)N[C@@H](Cc1ccc(OP(=O)(O)O)cc1)C(=O)N[C@@H](CCON=Cc1c(Cl)cncc1Cl)C(N)=O [Peptide 6f-w202] ({Biotin-Ahx}-VDADE[pY][X1]-NH2)
Kd: 0.073 ± 0.027 µM
